Values joined by “and” are separate entries in the source; they are usually repeats but may differ in a detail not shown here. Identical values can stand only once. Toxic doses and inconclusive results are not listed. No stated cut-off is given here; in the data, active means T/C of 150% or more; inactive means T/C below 125%.
Tested on: L1210 leukemia ip in BDF1 mice, survival T/C
Test: NCI In Vivo Anticancer Drug Screen. Data for tumor model L1210 Leukemia (intraperitoneal) in B6D2F1 (BDF1) mice
Conditions: endpoint: mean survival time, higher = longer survival
Summary of the method: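 Transplanted-tumor mice were given test agent; controls received vehicle only. Survival readings from the two groups were divided (treated over control).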

[1] = dose: 100.0 mg/kg/injection, schedule: Q01DX009 (ip), vehicle: saline
[2] = dose: 100.0 mg/kg/injection, schedule: Q04DX003 (ip), vehicle: saline
[3] = dose: 200.0 mg/kg/injection, schedule: Q04DX003 (ip), vehicle: saline
[4] = dose: 400.0 mg/kg/injection, schedule: Q04DX003 (ip), vehicle: saline
[5] = dose: 100.0 mg/kg/injection, schedule: Q04DX003 (ip), vehicle: Klucel (hydroxypropylcellulose) (HPC)
[6] = dose: 200.0 mg/kg/injection, schedule: Q04DX003 (ip), vehicle: Klucel (hydroxypropylcellulose) (HPC)
[7] = dose: 400.0 mg/kg/injection, schedule: Q04DX003 (ip), vehicle: Klucel (hydroxypropylcellulose) (HPC)
[8] = dose: 100.0 mg/kg/injection, schedule: Q04DX003 (ip), vehicle: saline with Tween-80
[9] = dose: 200.0 mg/kg/injection, schedule: Q04DX003 (ip), vehicle: saline with Tween-80
[10] = dose: 100.0 mg/kg/injection, schedule: Q01DX009 (ip), vehicle: saline with Tween-80
[11] = dose: 200.0 mg/kg/injection, schedule: Q01DX009 (ip), vehicle: saline with Tween-80
[12] = dose: 400.0 mg/kg/injection, schedule: Q01DX009 (ip), vehicle: saline with Tween-80
[13] = dose: 100.0 mg/kg/injection, schedule: Q01DX001 (ip), vehicle: carboxymethylcellulose (CMC)
[14] = dose: 200.0 mg/kg/injection, schedule: Q01DX001 (ip), vehicle: carboxymethylcellulose (CMC)
[15] = dose: 400.0 mg/kg/injection, schedule: Q04DX003 (ip), vehicle: saline with Tween-80
[16] = dose: 100.0 mg/kg/injection, schedule: Q01DX001 (ip), vehicle: saline

Measured: T/C

COc1cc2ccc3cc[n+](C)cc3c2cc1OC
inactive: dose: 50.0 mg/kg/injection, schedule: Q04DX003 (ip), vehicle: saline 104 % of control | dose: 66.0 mg/kg/injection, schedule: Q01DX009 (ip), vehicle: saline 121 % of control | [1] 110 % of control | [2] 98 % of control and 104 % of control | dose: 150.0 mg/kg/injection, schedule: Q01DX009 (ip), vehicle: saline 96 % of control | [3] 110 % of control | [4] 102 % of control

OC[P+](c1ccccc1)(c1ccccc1)c1ccccc1
inactive: [2] 98 % of control | [3] 98 % of control

CCOC(=O)/C(O)=C/c1nc2ccccc2nc1C
inactive: [5] 105 % of control | [6] 96 % of control | [7] 99 % of control

CCOC(=O)C1SC(N)=NC1=O (stereo not drawn)
inactive: [8] 94 % of control | [9] 90 % of control

CCOC(=O)NNC(=O)c1ccccc1
inactive: dose: 12.5 mg/kg/injection, schedule: Q01DX009 (ip), vehicle: alcohol 100 % of control | dose: 25.0 mg/kg/injection, schedule: Q01DX009 (ip), vehicle: alcohol 90 % of control | dose: 25.0 mg/kg/injection, schedule: Q04DX003 (ip), vehicle: alcohol 103 % of control | dose: 50.0 mg/kg/injection, schedule: Q01DX009 (ip), vehicle: alcohol 89 % of control | dose: 50.0 mg/kg/injection, schedule: Q04DX003 (ip), vehicle: alcohol 101 % of control

CSCCO
inactive: [1] 89 % of control | dose: 100.0 mg/kg/injection, schedule: Q04DX003 (ip), vehicle: saline sonified 102 % of control | dose: 200.0 mg/kg/injection, schedule: Q01DX009 (ip), vehicle: saline 100 % of control | dose: 200.0 mg/kg/injection, schedule: Q04DX003 (ip), vehicle: saline sonified 116 % of control | dose: 400.0 mg/kg/injection, schedule: Q01DX009 (ip), vehicle: saline 96 % of control | dose: 400.0 mg/kg/injection, schedule: Q04DX003 (ip), vehicle: saline sonified 98 % of control

Cc1cc(C)c(NC(=O)c2ccccc2Cl)c(C)c1
inactive: [10] 93 % of control | [11] 93 % of control | [12] 97 % of control

O=C1CCCc2cc3c(cc21)CCCC3
inactive: dose: 100.0 mg/kg/injection, schedule: Q01DX009 (ip), vehicle: Klucel (hydroxypropylcellulose) (HPC) 96 % of control | [5] 109 % of control | dose: 200.0 mg/kg/injection, schedule: Q01DX009 (ip), vehicle: Klucel (hydroxypropylcellulose) (HPC) 97 % of control | [6] 107 % of control | [7] 102 % of control

O=C(O)c1ccc2c(ccc3ccc4ccccc4c32)c1
inactive: dose: 12.5 mg/kg/injection, schedule: Q04DX003 (ip), vehicle: Klucel (hydroxypropylcellulose) (HPC) 100 % of control | dose: 25.0 mg/kg/injection, schedule: Q04DX003 (ip), vehicle: Klucel (hydroxypropylcellulose) (HPC) 89 % of control | dose: 50.0 mg/kg/injection, schedule: Q04DX003 (ip), vehicle: Klucel (hydroxypropylcellulose) (HPC) 96 % of control | [5] 97 % of control | [6] 106 % of control

CCN(CC)CN(CC)CC
inactive: dose: 25.0 mg/kg/injection, schedule: Q04DX002 (ip), vehicle: saline with Tween-80 103 % of control | dose: 50.0 mg/kg/injection, schedule: Q04DX002 (ip), vehicle: saline with Tween-80 100 % of control | dose: 100.0 mg/kg/injection, schedule: Q04DX002 (ip), vehicle: saline with Tween-80 98 % of control and 103 % of control

CC1(C)C(=O)NC2(O)CCCC21 (stereo not drawn)
inactive: dose: 15.0 mg/kg/injection, schedule: Q01DX001 (ip), vehicle: saline 101 % of control

CCOc1ccccc1Cl
inactive: [10] 97 % of control | [11] 102 % of control | [12] 95 % of control

O=C(NC(CO)CCCO)c1ccc([N+](=O)[O-])cc1 (stereo not drawn)
inactive: [5] 108 % of control | [6] 86 % of control | [7] 96 % of control

O=C(Oc1ccc(N=Nc2ccccc2)c(C(=O)O)c1)Oc1ccc(N=Nc2ccccc2)c(C(=O)O)c1
inactive: [13] 101 % of control | [14] 98 % of control

NC(=S)c1ccc(S(=O)(=O)Nc2cccc(Br)c2)cc1
inactive: [8] 103 % of control | [9] 103 % of control | [15] 97 % of control

CC(=O)OC1CC(OC2C(O)CC(OC3C(O)CC(OC4CCC5(C)C(CCC6C5CC(O)C5(C)C(C7=CC(=O)OC7)CCC65O)C4)OC3C)OC2C)OC(C)C1O (stereo not drawn) (tested in a mixture with another compound)
inactive: dose: 100.0 mg/kg/injection, schedule: Q01DX001 (sc), vehicle: steriod suspending solution 97 % of control | dose: 200.0 mg/kg/injection, schedule: Q01DX001 (sc), vehicle: steriod suspending solution 101 % of control

O=S1(=O)OC(c2ccccc2)(c2ccccc2)c2ccccc21
inactive: [13] 100 % of control | [14] 100 % of control | dose: 400.0 mg/kg/injection, schedule: Q01DX001 (ip), vehicle: carboxymethylcellulose (CMC) 100 % of control

O=C(C[P+](c1ccccc1)(c1ccccc1)c1ccccc1)c1ccccc1
inactive: dose: 75.0 mg/kg/injection, schedule: Q01DX001 (ip), vehicle: carboxymethylcellulose (CMC) 92 % of control | dose: 100.0 mg/kg/injection, schedule: Q01DX001 (ip), vehicle: Klucel (hydroxypropylcellulose) (HPC) 97 % of control | dose: 150.0 mg/kg/injection, schedule: Q01DX001 (ip), vehicle: carboxymethylcellulose (CMC) 97 % of control | dose: 300.0 mg/kg/injection, schedule: Q01DX001 (ip), vehicle: carboxymethylcellulose (CMC) 92 % of control

OCC(Cl)(Cl)Cl
inactive: [2] 104 % of control | [3] 96 % of control | [4] 107 % of control

CCCCCCCCCCCCNc1ccccn1
inactive: [8] 88 % of control | [9] 94 % of control | [15] 96 % of control

O=C(O)C1(c2ccc(-c3ccccc3)cc2)CCCCC1
inactive: [8] 96 % of control | [9] 96 % of control | [15] 100 % of control

CCOC(=O)Cc1cc(=O)c2ccccc2[nH]1
inactive: dose: 100.0 mg/kg/injection, schedule: Q04DX003 (ip), vehicle: acetone 96 % of control | dose: 200.0 mg/kg/injection, schedule: Q04DX003 (ip), vehicle: acetone 97 % of control | dose: 400.0 mg/kg/injection, schedule: Q04DX003 (ip), vehicle: acetone 103 % of control

CCCNC(=O)Nc1ccc(C)cc1C
inactive: [10] 96 % of control | [8] 97 % of control | [11] 97 % of control | [9] 97 % of control | [12] 100 % of control | [15] 101 % of control

CN(C)/C=N/NC(=O)C(O)(c1ccccc1)c1ccccc1
inactive: dose: 75.0 mg/kg/injection, schedule: Q01DX009 (ip), vehicle: Klucel (hydroxypropylcellulose) (HPC) 105 % of control | dose: 150.0 mg/kg/injection, schedule: Q01DX009 (ip), vehicle: Klucel (hydroxypropylcellulose) (HPC) 100 % of control | dose: 300.0 mg/kg/injection, schedule: Q01DX009 (ip), vehicle: Klucel (hydroxypropylcellulose) (HPC) 95 % of control

Oc1ccc(Br)cc1/C=N/c1nc(-c2ccccc2)cs1.Oc1ccc(Br)cc1/C=N/c1nc(-c2ccccc2)cs1.[Zn]
inactive: [16] 86 % of control

S=c1ccnc[nH]1
inactive: dose: 100.0 mg/kg/injection, schedule: Q01DX Z (ip), vehicle: methylcellulose (MC) 87 % of control | dose: 200.0 mg/kg/injection, schedule: Q01DX Z (ip), vehicle: methylcellulose (MC) 88 % of control

CCOC(=O)CCc1c(C(=O)OCC)[nH]c(C)c1C(=O)OCc1ccccc1
inactive: [5] 100 % of control | [6] 101 % of control | [7] 108 % of control

O=c1ccc(=O)n(CCc2ccccn2)[nH]1
inactive: dose: 50.0 mg/kg/injection, schedule: Q01DX001 (ip), vehicle: saline 97 % of control | [16] 97 % of control | dose: 200.0 mg/kg/injection, schedule: Q01DX001 (ip), vehicle: saline 94 % of control | dose: 400.0 mg/kg/injection, schedule: Q01DX001 (ip), vehicle: saline 97 % of control
